Key:
[1] = target: T1, kinase domain protein of RC kinase (RCK) (Homo sapiens, UniProt Q56UN5); assay: Kinase competition binding assay (Kd, qPCR readout), RC kinase; settings: Kd class, read-out: RCK Activity Level
T1 construct: made in house; host or cells: E. coli BL21-derived host (T7 phage) or HEK-293
T1 sequence (Q56UN5 1061-1324 limits assumed): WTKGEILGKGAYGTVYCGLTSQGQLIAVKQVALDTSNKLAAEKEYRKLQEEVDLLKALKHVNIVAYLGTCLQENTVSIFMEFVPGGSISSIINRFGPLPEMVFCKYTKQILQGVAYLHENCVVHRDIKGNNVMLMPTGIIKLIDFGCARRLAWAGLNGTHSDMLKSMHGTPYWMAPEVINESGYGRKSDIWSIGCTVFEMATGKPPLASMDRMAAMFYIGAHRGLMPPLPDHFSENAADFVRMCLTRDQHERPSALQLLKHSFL
How it was run: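 Competition binding: DNA-tagged kinase (T7 phage or HEK-293-expressed) plus immobilized biotinylated ligand beads and compound, 1 h at room temperature, 1% DMSO. Bead-bound kinase eluted and quantified by qPCR. Kd from 11-point 3-fold dilution, top 30,000 nM, retested lower if below 0.5 nM.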

JAK2 = target: T2, JAK2 (Homo sapiens, UniProt O60674); assay: Kinase competition binding assay (Kd, qPCR readout), JAK2; settings: for Kd: Kd class, JAK2, read-out: JAK2 Activity Level; for RCK:JAK2 selectivity ratio: ratio Kd (JAK2): Kd(RCK)
T2 construct: made in house; host or cells: E. coli BL21-derived host (T7 phage) or HEK-293
T2 sequence (O60674 840-1132 limits assumed): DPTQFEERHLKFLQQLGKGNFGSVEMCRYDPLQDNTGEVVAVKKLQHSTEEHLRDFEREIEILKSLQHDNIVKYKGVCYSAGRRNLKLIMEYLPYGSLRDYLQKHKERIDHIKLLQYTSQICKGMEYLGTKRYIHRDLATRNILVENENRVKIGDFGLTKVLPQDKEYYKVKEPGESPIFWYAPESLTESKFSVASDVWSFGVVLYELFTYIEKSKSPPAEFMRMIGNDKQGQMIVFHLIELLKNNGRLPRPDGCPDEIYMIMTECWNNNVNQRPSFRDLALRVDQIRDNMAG
How it was run: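 Competition binding: DNA-tagged kinase (T7 phage or HEK-293-expressed), immobilized biotinylated ligand beads and compound in SeaBlock/PBS/Tween/DTT buffer, 1 hour at room temperature; bound kinase eluted and quantified by qPCR. Kd from 11-point 3-fold dilution, top 30,000 nM typically, final DMSO 1%.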

JAK3 = target: T3, JAK3 (Homo sapiens, UniProt P52333); assay: Kinase competition binding assay (Kd, qPCR readout), JAK3; settings: for Kd: Kd class, JAK3, read-out: JAK3 Activity Level; for RCK:JAK3 selectivity ratio: ratio Kd (JAK3): Kd (RCK)
T3 construct: made in house; host or cells: E. coli BL21-derived host (T7 phage) or HEK-293
T3 sequence (P52333 811-1124 limits assumed): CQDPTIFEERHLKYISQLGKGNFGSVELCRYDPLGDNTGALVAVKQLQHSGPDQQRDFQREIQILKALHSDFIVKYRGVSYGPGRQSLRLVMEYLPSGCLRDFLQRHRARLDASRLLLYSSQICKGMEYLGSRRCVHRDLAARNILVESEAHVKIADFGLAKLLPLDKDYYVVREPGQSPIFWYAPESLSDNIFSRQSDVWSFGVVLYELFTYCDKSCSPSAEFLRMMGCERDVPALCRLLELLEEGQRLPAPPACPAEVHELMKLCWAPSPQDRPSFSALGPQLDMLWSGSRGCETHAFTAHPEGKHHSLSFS
How it was run: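 Kd values were derived from 11-point, 3-fold compound series at 1% DMSO, usually topping at 30,000 nM, with retesting from a lower top when under 0.5 nM. It competed with bead-immobilized ligand for 1 h at room temperature, and the captured kinase was measured by qPCR after elution.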

| Kd [1] | Kd (JAK2) | RCK:JAK2 selectivity ratio (JAK2) | Kd (JAK3) | Compound | RCK:JAK3 selectivity ratio (JAK3) |
| --- | --- | --- | --- | --- | --- |
| < 50 nM | < 50 nM | D (D represents Kd(JAK2): Kd (RCK)<1) | < 50 nM | NC(=O)c1c(Nc2ccc(N3CCOCC3)c(Cl)c2)n[nH]c1NCc1ccc(O)cc1 [reference compound] | C (C represents 1<Kd (JAK3): Kd (RCK)<10) |
| 100 to 1000 nM | 50 to 100 nM | D (D represents Kd(JAK2): Kd (RCK)<1) | 100 to 1000 nM | NC(=O)c1c(Nc2ccc(N)cc2)n[nH]c1NCc1ccc(O)cc1 [reference compound] | D (D represents Kd (JAK3): Kd(RCK)<1) |
